Measured values: ChEMBL document CHEMBL1143906, “TIE-2/VEGF-R2 SAR and in vitro activity of C3-acyl dihydroindazolo[5,4-a]pyrrolo[3,4-c]carbazole analogs” (Bioorg Med Chem Lett, 2008)

Assays:
Angiopoietin-1 receptor [1] = target: T1, Angiopoietin-1 receptor (Homo sapiens, UniProt Q02763); experiment: Inhibition of TIE2
[2] = target: Vascular endothelial growth factor receptor 2 (Homo sapiens, UniProt P35968); experiment: Inhibition of VEGFR2
[3] = AUC in rat; format: ADME, organism-based; details: plasma
[4] = Clearance in rat at 1 mg/kg, iv; format: ADME, organism-based; set-up: dose 1 mg/kg, route intravenous; details: in vivo
[5] = target: Vascular endothelial growth factor receptor 2 (Mus musculus, UniProt P35918); experiment: Inhibition of mouse VEGFR2 autophosphorylation in NIH3T3 cell
Chain of Vascular endothelial growth factor receptor 2 (Mus musculus, UniProt P35918) (P35918 whole entry): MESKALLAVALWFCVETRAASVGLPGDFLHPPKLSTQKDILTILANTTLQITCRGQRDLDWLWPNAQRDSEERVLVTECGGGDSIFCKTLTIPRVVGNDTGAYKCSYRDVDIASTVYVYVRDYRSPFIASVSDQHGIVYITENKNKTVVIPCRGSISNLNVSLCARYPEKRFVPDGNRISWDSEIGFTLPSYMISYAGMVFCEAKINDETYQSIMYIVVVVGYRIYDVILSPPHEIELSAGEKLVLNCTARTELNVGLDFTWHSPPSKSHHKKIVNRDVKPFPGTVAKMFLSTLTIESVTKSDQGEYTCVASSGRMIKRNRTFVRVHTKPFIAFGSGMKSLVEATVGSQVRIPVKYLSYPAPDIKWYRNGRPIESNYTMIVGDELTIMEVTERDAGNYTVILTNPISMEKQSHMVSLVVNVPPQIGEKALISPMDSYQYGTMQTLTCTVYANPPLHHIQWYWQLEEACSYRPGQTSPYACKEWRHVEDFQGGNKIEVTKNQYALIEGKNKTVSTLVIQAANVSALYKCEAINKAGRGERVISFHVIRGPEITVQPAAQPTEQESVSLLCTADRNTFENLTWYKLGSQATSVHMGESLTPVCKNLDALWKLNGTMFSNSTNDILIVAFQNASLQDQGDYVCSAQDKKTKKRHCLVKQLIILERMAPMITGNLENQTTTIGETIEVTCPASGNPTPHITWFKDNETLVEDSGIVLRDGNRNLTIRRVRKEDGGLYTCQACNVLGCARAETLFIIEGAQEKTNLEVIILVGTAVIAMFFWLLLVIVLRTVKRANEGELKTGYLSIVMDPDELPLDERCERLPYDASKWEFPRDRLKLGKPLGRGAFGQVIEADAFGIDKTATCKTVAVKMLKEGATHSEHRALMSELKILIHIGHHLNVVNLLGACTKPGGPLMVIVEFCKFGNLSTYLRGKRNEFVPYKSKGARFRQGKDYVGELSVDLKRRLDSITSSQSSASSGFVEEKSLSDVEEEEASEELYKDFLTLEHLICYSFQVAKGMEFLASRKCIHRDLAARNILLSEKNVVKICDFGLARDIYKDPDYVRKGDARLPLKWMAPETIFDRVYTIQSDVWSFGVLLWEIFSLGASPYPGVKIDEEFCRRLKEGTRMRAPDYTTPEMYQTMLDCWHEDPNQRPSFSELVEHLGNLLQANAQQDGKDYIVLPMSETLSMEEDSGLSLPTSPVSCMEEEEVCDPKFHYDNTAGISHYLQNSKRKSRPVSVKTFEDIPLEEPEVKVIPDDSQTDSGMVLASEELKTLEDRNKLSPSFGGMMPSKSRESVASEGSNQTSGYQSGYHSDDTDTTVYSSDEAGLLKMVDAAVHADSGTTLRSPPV

Angiopoietin-1 receptor [6] = target: T1, Angiopoietin-1 receptor; experiment: Inhibition of TIE2 at 300 nM
Angiopoietin-1 receptor [7] = target: T1, Angiopoietin-1 receptor; experiment: Inhibition of TIE2 at 1000 nM
[8] = Tmax in rat at 5 mg/kg, po; format: ADME, organism-based; set-up: dose 5 mg/kg, route oral; details: in vivo
[9] = Cmax in rat at 5 mg/kg, po; format: ADME, organism-based; set-up: dose 5 mg/kg, route oral; details: in vivo
HUVEC [10] = experiment: Inhibition of angiopoietin 1-induced chemotaxis of HUVEC cells; format: functional, cell-based; details: Homo sapiens
Aorta [11] = experiment: Ex vivo antiangiogenic activity in rat aortic ring explant assessed as inhibition of microvessel growth after 8 days; format: functional, tissue-based; details: 192 h
[12] = Aqueous solubility at pH 2.0; format: physicochemical; details: aqueous medium
[13] = AUC (0 to t) in rat at 1 mg/kg, iv; format: ADME, organism-based; set-up: dose 1 mg/kg, route intravenous; details: plasma
[14] = Aqueous solubility at pH 7.4; format: physicochemical; details: aqueous medium
[15] = Volume of distribution in rat at 1 mg/kg, iv; format: ADME, organism-based; set-up: dose 1 mg/kg, route intravenous; details: in vivo
[16] = AUC (0 to infinity) in rat at 1 mg/kg, iv; format: ADME, organism-based; set-up: time infinity, dose 1 mg/kg, route intravenous; details: plasma
HUVEC [17] = experiment: Cytotoxicity against human HUVEC cells; format: cell-based
[18] = Bioavailability in rat at 5 mg/kg, po; format: ADME, organism-based; details: in vivo
[19] = AUC (0 to infinity) in rat at 5 mg/kg, po; format: ADME, organism-based; set-up: time infinity, dose 5 mg/kg, route oral; details: plasma
[20] = AUC (0 to t) in rat at 5 mg/kg, po; format: ADME, organism-based; set-up: dose 5 mg/kg, route oral; details: plasma
[21] = Half life in rat at 1 mg/kg, iv; format: ADME, organism-based; set-up: dose 1 mg/kg, route intravenous; details: in vivo
Aorta [22] = experiment: Toxicity in rat aortic ring; format: tissue-based

T1 sequence (Q02763 whole entry): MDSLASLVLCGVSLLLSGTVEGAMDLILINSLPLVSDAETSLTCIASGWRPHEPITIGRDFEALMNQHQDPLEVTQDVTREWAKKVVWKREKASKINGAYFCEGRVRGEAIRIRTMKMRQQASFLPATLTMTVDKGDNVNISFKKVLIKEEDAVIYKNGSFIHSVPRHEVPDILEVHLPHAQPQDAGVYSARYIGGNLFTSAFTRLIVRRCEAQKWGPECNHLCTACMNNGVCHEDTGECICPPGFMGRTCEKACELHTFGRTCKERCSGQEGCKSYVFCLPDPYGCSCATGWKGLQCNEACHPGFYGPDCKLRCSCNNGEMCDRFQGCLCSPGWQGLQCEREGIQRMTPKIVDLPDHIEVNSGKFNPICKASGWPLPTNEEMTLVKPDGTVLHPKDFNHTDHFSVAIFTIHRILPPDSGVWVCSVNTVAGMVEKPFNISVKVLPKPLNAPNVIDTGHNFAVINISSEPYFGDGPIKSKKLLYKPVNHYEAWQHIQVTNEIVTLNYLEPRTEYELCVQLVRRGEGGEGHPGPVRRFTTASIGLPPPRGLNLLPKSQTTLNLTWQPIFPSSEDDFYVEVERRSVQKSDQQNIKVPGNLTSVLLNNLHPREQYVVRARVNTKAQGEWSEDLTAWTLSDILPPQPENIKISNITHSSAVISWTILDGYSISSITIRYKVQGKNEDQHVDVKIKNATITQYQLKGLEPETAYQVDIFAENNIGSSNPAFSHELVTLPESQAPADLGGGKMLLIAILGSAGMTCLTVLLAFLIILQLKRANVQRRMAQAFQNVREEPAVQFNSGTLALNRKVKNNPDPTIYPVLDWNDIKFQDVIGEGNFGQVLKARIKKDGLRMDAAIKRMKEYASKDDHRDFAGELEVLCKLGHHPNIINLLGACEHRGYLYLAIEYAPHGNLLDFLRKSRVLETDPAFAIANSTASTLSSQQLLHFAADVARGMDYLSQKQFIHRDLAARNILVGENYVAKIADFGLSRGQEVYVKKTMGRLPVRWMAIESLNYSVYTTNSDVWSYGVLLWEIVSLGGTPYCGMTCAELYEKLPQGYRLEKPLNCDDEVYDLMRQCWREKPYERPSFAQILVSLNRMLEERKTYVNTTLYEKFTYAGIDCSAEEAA
Chain of Vascular endothelial growth factor receptor 2 (Homo sapiens, UniProt P35968) (P35968 whole entry): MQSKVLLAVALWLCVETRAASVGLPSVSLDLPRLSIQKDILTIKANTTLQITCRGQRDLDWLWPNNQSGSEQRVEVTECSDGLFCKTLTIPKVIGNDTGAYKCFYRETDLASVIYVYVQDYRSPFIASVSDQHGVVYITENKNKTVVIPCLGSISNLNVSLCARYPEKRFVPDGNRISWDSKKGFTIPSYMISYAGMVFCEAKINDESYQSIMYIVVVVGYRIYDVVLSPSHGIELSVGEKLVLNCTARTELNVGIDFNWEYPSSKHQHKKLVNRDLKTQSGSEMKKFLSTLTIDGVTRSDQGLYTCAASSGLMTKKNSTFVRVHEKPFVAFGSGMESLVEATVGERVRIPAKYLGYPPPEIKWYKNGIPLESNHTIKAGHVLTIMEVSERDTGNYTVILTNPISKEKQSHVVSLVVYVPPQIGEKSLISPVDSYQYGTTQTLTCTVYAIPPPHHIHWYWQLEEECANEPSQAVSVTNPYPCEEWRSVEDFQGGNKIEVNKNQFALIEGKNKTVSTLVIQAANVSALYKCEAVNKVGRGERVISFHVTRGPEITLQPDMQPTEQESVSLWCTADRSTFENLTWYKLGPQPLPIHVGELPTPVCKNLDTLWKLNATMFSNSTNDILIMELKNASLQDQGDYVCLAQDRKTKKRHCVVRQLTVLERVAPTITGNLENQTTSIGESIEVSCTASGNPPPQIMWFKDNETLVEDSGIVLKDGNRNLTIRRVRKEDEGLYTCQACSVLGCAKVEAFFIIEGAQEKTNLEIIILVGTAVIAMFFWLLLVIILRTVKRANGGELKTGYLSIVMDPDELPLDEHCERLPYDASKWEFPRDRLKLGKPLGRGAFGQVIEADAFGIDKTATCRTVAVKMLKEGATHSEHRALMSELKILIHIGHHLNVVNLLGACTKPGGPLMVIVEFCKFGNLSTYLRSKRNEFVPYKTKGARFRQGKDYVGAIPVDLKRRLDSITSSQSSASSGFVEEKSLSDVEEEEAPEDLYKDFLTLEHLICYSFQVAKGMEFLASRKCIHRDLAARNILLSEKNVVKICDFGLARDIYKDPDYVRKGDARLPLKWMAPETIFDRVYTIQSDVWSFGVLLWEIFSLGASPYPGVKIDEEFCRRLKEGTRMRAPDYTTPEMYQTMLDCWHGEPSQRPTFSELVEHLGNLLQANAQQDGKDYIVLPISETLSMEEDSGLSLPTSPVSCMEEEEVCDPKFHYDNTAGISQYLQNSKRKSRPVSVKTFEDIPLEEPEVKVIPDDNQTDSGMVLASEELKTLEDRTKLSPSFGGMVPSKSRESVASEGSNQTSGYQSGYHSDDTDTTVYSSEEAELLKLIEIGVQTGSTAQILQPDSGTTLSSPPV

IC50 (Angiopoietin-1 receptor [1]) [nM] | IC50 [2] [nM] | SMILES | further results
72 | 4 | CC(C)Cn1c2ccc(C(=O)c3ccco3)cc2c2c3c(c4c(c21)CCc1nn(C)cc1-4)C(=O)NC3 | 
15 | 25 | CC(C)Cn1c2ccc(C(=O)c3sccc3Br)cc2c2c3c(c4c(c21)CCc1nn(C)cc1-4)C(=O)NC3 | AUC [3]: 123 ng·h/mL; clearance [4]: 138 mL/min/kg; IC50 [5]: < 10 nM
58 | 8 | CC(C)Cn1c2ccc(C(=O)c3ccoc3)cc2c2c3c(c4c(c21)CCc1nn(C)cc1-4)C(=O)NC3 | 
5 | 10 | Cc1ccsc1C(=O)c1ccc2c(c1)c1c3c(c4c(c1n2CC(C)C)CCc1nn(C)cc1-4)C(=O)NC3 | AUC [3]: 261 ng·h/mL; clearance [4]: 72 mL/min/kg; IC50 [5]: < 10 nM
43 | 11 | Cc1csc(C(=O)c2ccc3c(c2)c2c4c(c5c(c2n3CC(C)C)CCc2nn(C)cc2-5)C(=O)NC4)c1 | IC50 [5]: > 50 nM
13 | 7 | CC(C)Cn1c2ccc(C(=O)c3sccc3Cl)cc2c2c3c(c4c(c21)CCc1nn(C)cc1-4)C(=O)NC3 | Tmax [8]: 3.33 h; Cmax [9]: 842 ng/mL; Activity (HUVEC [10]): Dose-dependent effect; EC50 (Aorta [11]): 20 nM; solubility [12]: < 1 µg/mL; AUC(0-t) [13]: 1440 ng·h/mL; solubility [14]: < 1 µg/mL; Vd [15]: 1.4 L/kg; AUC(0-inf) [16]: 1490 ng·h/mL; clearance [4]: 12 mL/min/kg; Activity (HUVEC [17]): Non-toxic; bioavailability [18]: 69%; IC50 [5]: 10 nM; AUC(0-inf) [19]: 5140 ng·h/mL; AUC(0-t) [20]: 3330 ng·h/mL; half-life [21]: 1.35 h; Activity (Aorta [22]): Non-toxic
20 | 6 | CC(C)Cn1c2ccc(C(=O)c3cccs3)cc2c2c3c(c4c(c21)CCc1nn(C)cc1-4)C(=O)NC3 | Tmax [8]: 4 h; Cmax [9]: 638 ng/mL; Activity (HUVEC [10]): Dose-dependent effect; EC50 (Aorta [11]): 20 nM; solubility [12]: < 1 µg/mL; AUC(0-t) [13]: 5680 ng·h/mL; solubility [14]: < 1 µg/mL; Vd [15]: 0.52 L/kg; AUC(0-inf) [16]: 6650 ng·h/mL; clearance [4]: 2.36 mL/min/kg; Activity (HUVEC [17]): Non-toxic; bioavailability [18]: 12%; IC50 [5]: 10 nM; AUC(0-inf) [19]: 4130 ng·h/mL; AUC(0-t) [20]: 2820 ng·h/mL; half-life [21]: 2.32 h; Activity (Aorta [22]): Non-toxic
63 | 13 | CC(C)Cn1c2ccc(C(=O)c3ccsc3)cc2c2c3c(c4c(c21)CCc1nn(C)cc1-4)C(=O)NC3 | 

More lines, now with the values behind:

SMILES | IC50 (Angiopoietin-1 receptor [1]) [nM] | IC50 [2] [nM] | further results
Cn1cc2c(n1)CCc1c-2c2c(c3c1[nH]c1ccc(C(=O)c4cccs4)cc13)CNC2=O | 136 | 2 | 
CC(=O)c1ccc2c(c1)c1c3c(c4c(c1n2C(C)C)CCc1nn(C)cc1-4)C(=O)NC3 | 726 | 75 | 
CC(C)n1c2ccc(C(=O)c3cccs3)cc2c2c3c(c4c(c21)CCc1nn(C)cc1-4)C(=O)NC3 | 24 | 15 | 
CCCn1c2ccc(C(=O)c3cccs3)cc2c2c3c(c4c(c21)CCc1nn(C)cc1-4)C(=O)NC3 | 26 | 5 | 
CC(=O)c1ccc2c(c1)c1c3c(c4c(c1n2C)CCc1nn(C)cc1-4)C(=O)NC3 | > 10000 | 10 | 
CCCCn1c2ccc(C(C)=O)cc2c2c3c(c4c(c21)CCc1nn(C)cc1-4)C(=O)NC3 | 300 | 26 | inhibition (Angiopoietin-1 receptor [6]): 50%
CC(C)Cn1c2ccccc2c2c3c(c4c(c21)CCc1nn(C)cc1-4)C(=O)NC3 | 372 | 17 | 
CCn1c2ccccc2c2c3c(c4c(c21)CCc1nn(C)cc1-4)C(=O)NC3 | 1100 | 15 | 
CCCn1c2ccc(C(C)=O)cc2c2c3c(c4c(c21)CCc1nn(C)cc1-4)C(=O)NC3 | 272 | 3 | 
CC(=O)c1ccc2[nH]c3c4c(c5c(c3c2c1)CNC5=O)-c1cn(C)nc1CC4 | > 1000 | 35 | inhibition (Angiopoietin-1 receptor [7]): 28%
CCCn1c2ccccc2c2c3c(c4c(c21)CCc1nn(C)cc1-4)C(=O)NC3 | 136 | 16 | 
CCn1c2ccc(C(C)=O)cc2c2c3c(c4c(c21)CCc1nn(C)cc1-4)C(=O)NC3 | 1000 | 13 | inhibition (Angiopoietin-1 receptor [7]): 50%
CC(=O)c1ccc2c(c1)c1c3c(c4c(c1n2CC(C)C)CCc1nn(C)cc1-4)C(=O)NC3 | 83 | 21 | 
CC(C)OCc1ccc2c(c1)c1c3c(c4c(c1n2CCCOC(=O)CN(C)C)Cc1ccccc1-4)C(=O)NC3 [CEP-7055] | 1360 | 16 | 
CCn1c2ccc(C(=O)c3cccs3)cc2c2c3c(c4c(c21)CCc1nn(C)cc1-4)C(=O)NC3 | 43 | 1 | 
Cn1cc2c(n1)CCc1c-2c2c(c3c1[nH]c1ccccc13)CNC2=O | 1360 | 16 | 
